Data on 26 compounds can be found in US8399465B2, “Compounds with two fused bicyclic heteroaryl moieties as modulators of leukotriene A4 hydrolase” (Janssen Pharmaceutica NV, priority 2009, dated 2013).

One may read the IC50 as the concentration that gives 50% inhibition.

Structures can show the parent of a compound that is named as a salt.

This test deals with T1, recombinant human LTA4 hydrolase (rhLTA4H) (Homo sapiens, UniProt P09960).
T1 construct: made in house; host or cells: Spodoptera frugiperda (Sf-9) cells, baculovirus (pFastBac1)
T1 sequence (P09960 1-611): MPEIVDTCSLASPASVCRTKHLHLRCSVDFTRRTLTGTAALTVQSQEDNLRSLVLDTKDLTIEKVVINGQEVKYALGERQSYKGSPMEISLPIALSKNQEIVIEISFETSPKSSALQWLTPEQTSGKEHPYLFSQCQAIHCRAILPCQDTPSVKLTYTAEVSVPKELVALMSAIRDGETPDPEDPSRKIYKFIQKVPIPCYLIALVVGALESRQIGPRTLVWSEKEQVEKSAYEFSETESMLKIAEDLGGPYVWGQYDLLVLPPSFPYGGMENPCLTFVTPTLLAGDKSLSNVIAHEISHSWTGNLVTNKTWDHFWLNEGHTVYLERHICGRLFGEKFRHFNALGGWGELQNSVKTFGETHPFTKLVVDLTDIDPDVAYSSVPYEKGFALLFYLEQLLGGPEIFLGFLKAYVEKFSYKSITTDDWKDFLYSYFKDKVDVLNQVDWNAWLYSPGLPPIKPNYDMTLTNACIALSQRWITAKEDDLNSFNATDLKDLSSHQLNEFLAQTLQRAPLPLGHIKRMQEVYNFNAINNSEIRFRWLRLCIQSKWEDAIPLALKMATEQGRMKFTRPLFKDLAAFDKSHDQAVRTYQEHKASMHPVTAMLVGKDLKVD
The test is described as follows: Recombinant human LTA4 hydrolase assay for LTA4 hydrolase inhibitor activity. It is filed as biochemical. The conditions noted are these: rhLTA4H, LTB4 by immunoassay; single determination or average of two or more; mark after value = form tested: ′ free base, ″ hydrochloride, ^ formate; read-out: IC50. The procedure:
Assay 1: Recombinant Human LTA4 Hydrolase Assay for LTA4 Hydrolase Inhibitor Activity
Compounds of the present invention were tested for LTA4 hydrolase inhibitor activity against recombinant human LTA4 hydrolase (rhLTA4H). Vectors were prepared and used to express rhLTA4H essentially as follows: LTA4 hydrolase encoding DNA was amplified by polymerase chain reaction (PCR) using a human placental cDNA library as a template. […] The amplified 1.9 kb DNA fragment encoding LTA4 hydrolase was isolated and cloned into the pFastBac1 vector (Invitrogen). Recombinant baculovirus was generated as described by the manufacturer, and used to infect Spodoptera frugiperda (Sf-9) cells. […] The purified enzyme solution was adjusted to contain 0.29 mg/mL LTA4 hydrolase, 50 mM Tris (pH 8.0), 150 mM NaCl, 5 mM dithiothreitol, 50% glycerol, and EDTA-free Complete protease inhibitor cocktail (Roche).
LTA4 substrate was prepared from the methyl ester of LTA4 (Cayman Chemical) by treatment with 67 equiv of NaOH under nitrogen at rt for 40 min. The LTA4 substrate in its free acid form was kept frozen at −80° C. until needed. Each compound was diluted to different concentrations in assay buffer (from Assay Designs) containing 10% DMSO. A 25-μL aliquot of each compound dilution was incubated for 10 min at rt with an equal volume of assay buffer containing 10 ng of recombinant human LTA4H. The solution was then adjusted to 200 μL with assay buffer. […] Each reaction was carried out at rt for 30 min. The reaction was stopped by diluting 10 μL of the reaction mixture with 200 μL of assay buffer. LTB4 was quantified in the diluted sample by a commercially available enzyme-linked immunoassay (Cayman Chemical Co.), as recommended by the manufacturer. Positive controls, under essentially identical conditions but without addition of an inhibitor compound, and negative controls, containing all assay components except enzyme, were routinely run in each experiment. IC50 values were determined by nonlinear regression of the activity data at different compound concentrations using Graphpad Prism 4.0, one site binding competition.
The values presented here are the result of a single determination or an average of two or more determinations. Compounds that were not tested are indicated as such by a “NT” designation.
On to `NC(=O)C1CCN(Cc2cc3ccc(Oc4nc5ncccc5s4)cc3s2)CC1` [Example 138, 1-[6-(Thiazolo[4,5-b]pyridin-2-yloxy)-benzo[b]thiophen-2-ylmethyl]-piperidine-4-carboxylic acid amide], for which the IC50 came to 169 nM.

As to `c1ccc2sc(Oc3ccc4cc(CN5CCOCC5)sc4c3)nc2c1` [Example 133, (2-Morpholin-4-ylmethyl-benzo[b]thiophen-6-yloxy)-benzothiazole], the IC50 came out at 473 nM.

Consider `CC(=O)N1C[C@@H]2C[C@H]1CN2Cc1cc2ncc(Oc3nc4ncccc4s3)cc2o1` [Example 274, (1S,4S)-1-{5-[6-(Thiazolo[4,5-b]pyridin-2-yloxy)-furo[3,2-b]pyridin-2-ylmethyl]-2,5-diaza-bicyclo[2.2.1]hept-2-yl}-ethanone formate], for which the IC50 is 250 nM.

`c1ccc2sc(Oc3ccc4c(CN5CCCCC5)coc4c3)nc2c1` [Example 405, 2-(3-Piperidin-1-ylmethyl-benzofuran-6-yloxy)-benzothiazole]: the half-maximal inhibitory concentration (IC50) came to 77 nM.

On to `CC(=O)N[C@H]1C[C@H]2CC[C@@H](C1)N2Cc1cc2ccc(Oc3nc4cccnc4s3)cc2o1` [Example 126, meso-endo-N-{8-[6-(Thiazolo[5,4-b]pyridin-2-yloxy)-benzofuran-2-ylmethyl]-8-aza-bicyclo[3.2.1]oct-3-yl}-acetamide], for which the IC50 stood at 610 nM.

In the case of `c1cnc2nc(Oc3ccc4cc(CN5CC6COCC6C5)oc4c3)sc2c1` (centres unmarked) [Example 110, 2-[2-(Tetrahydro-furo[3,4-c]pyrrol-5-ylmethyl)-benzofuran-6-yloxy]-thiazolo[4,5-b]pyridine formate], the IC50 came out at 207 nM.

`c1ccc2sc(Oc3ccc4oc(CN5CCCCC5)cc4c3)nc2c1` [Example 82, 2-(2-Piperidin-1-ylmethyl-benzofuran-5-yloxy)-benzothiazole formate]: the 50% inhibitory concentration (IC50) came to 190 nM.

With `O=C(NCc1coc2cc(Oc3nc4ncccc4s3)ccc12)[C@@H]1C[C@@H]2CC[C@H]1C2` (relative stereo) [Example 389, endo-Bicyclo[2.2.1]heptane-2-carboxylic acid [6-(thiazolo[4,5-b]pyridin-2-yloxy)-benzofuran-3-ylmethyl]-amide], the IC50 was 120 nM.

`CC(=O)N[C@@H]1C[C@H]2CC[C@@H](C1)N2Cc1cc2ncc(Oc3nc4ncccc4s3)cc2o1` [Example 336, meso-exo-N-{8-[6-(Thiazolo[4,5-b]pyridin-2-yloxy)-furo[3,2-b]pyridin-2-ylmethyl]-8-aza-bicyclo[3.2.1]oct-3-yl}-acetamide]: the 50% inhibitory concentration (IC50) is 110 nM.

As to `c1cnc2nc(Oc3ccc4oc(CN5CCOCC5)cc4c3)sc2c1` [Example 97, 2-(2-Morpholin-4-ylmethyl-benzofuran-5-yloxy)-thiazolo[4,5-b]pyridine], the IC50 amounted to 194 nM.

`CN1CCC(N(C)Cc2coc3cc(Oc4nc5ncccc5s4)ccc23)CC1` [Example 294, Methyl-(1-methyl-piperidin-4-yl)-[6-(thiazolo[4,5-b]pyridin-2-yloxy)-benzofuran-3-ylmethyl]-amine]: the IC50 worked out at 24 nM.

Consider `CCn1c(CN2CCCCC2)cc2cc(Oc3nc4ccccc4s3)ccc21` [Example 62, 2-(1-Ethyl-2-piperidin-1-ylmethyl-1H-indol-5-yloxy)-benzothiazole], for which the IC50 is 382 nM.

On to `c1ccc2c(c1)CCN(Cc1coc3cc(Oc4nc5ncccc5s4)ccc13)C2` [Example 293, 2-[6-(Thiazolo[4,5-b]pyridin-2-yloxy)-benzofuran-3-ylmethyl]-1,2,3,4-tetrahydro-isoquinoline formate], for which the IC50 was determined as 19 nM.

Regarding `O=C(c1ccccc1)C1CCN(C(=O)c2coc3cc(Oc4nc5ncccc5s4)ccc23)CC1` [Example 387, (4-Benzoyl-piperidin-1-yl)-[6-(thiazolo[4,5-b]pyridin-2-yloxy)-benzofuran-3-yl]-methanone], the half-inhibitory concentration (IC50) was 150 nM.

For `O=C1Cc2cc(Cl)ccc2N1Cc1coc2cc(Oc3nc4ncccc4s3)ccc12` [Example 401, 5-Chloro-1-[6-(thiazolo[4,5-b]pyridin-2-yloxy)-benzofuran-3-ylmethyl]-1,3-dihydro-indol-2-one], the IC50 is 1020 nM.

For the compound `CC(=O)N1CCCC2(CCN(Cc3cc4cc(Oc5nc6ncccc6s5)ccc4o3)C2)C1` (centres unmarked) [Example 166, 1-{2-[5-(Thiazolo[4,5-b]pyridin-2-yloxy)-benzofuran-2-ylmethyl]-2,7-diaza-spiro[4.5]dec-7-yl}-ethanone], the IC50 is 286 nM.

On to `NS(=O)(=O)c1ccc(CCNCc2coc3cc(Oc4nc5ccccc5s4)ccc23)cc1` [Example 311, 4-(2-{[6-(Benzothiazol-2-yloxy)-benzofuran-3-ylmethyl]-amino}-ethyl)-benzenesulfonamide], for which the IC50 worked out at 230 nM.

Take `c1ccc2sc(Oc3ccc4[nH]cc(CN5CCOCC5)c4c3)nc2c1` [Example 11, 2-(3-Morpholin-4-ylmethyl-1H-indol-5-yloxy)-benzothiazole]: the IC50 was 1400 nM.

For the compound `c1ccc(OCCNCc2coc3cc(Oc4nc5ncccc5s4)ccc23)cc1` [Example 319, (2-Phenoxy-ethyl)-[6-(thiazolo[4,5-b]pyridin-2-yloxy)-benzofuran-3-ylmethyl]-amine formate], the IC50 was found to be 52 nM.

In the case of `c1ccc2sc(Oc3ccc4[nH]cc(CN5CCCCC5)c4c3)nc2c1` [Example 10, 2-(3-Piperidin-1-ylmethyl-1H-indol-5-yloxy)-benzothiazole], the IC50 was 415 nM.

As to `CC(=O)N[C@H]1C[C@H]2CC[C@@H](C1)N2Cc1cc2ncc(Oc3nc4ncccc4s3)cc2o1` [Example 296, meso-endo-N-{8-[6-(Thiazolo[4,5-b]pyridin-2-yloxy)-furo[3,2-b]pyridin-2-ylmethyl]-8-aza-bicyclo[3.2.1]oct-3-yl}-acetamide formate], the IC50 stood at 850 nM.

Regarding `c1ccc2sc(Oc3ccc4c(CN5CCc6sc7ccccc7c6C5)c[nH]c4c3)nc2c1` [Example 39, 2-[6-(Benzothiazol-2-yloxy)-1H-indol-3-ylmethyl]-1,2,3,4-tetrahydro-benzo[4,5]thieno[3,2-c]pyridine formate], the IC50 is 275 nM.

Turning to `CC(=O)N[C@H]1C[C@H]2CC[C@@H](C1)N2Cc1cc2ccc(Oc3nc4cnccc4s3)cc2o1` [Example 201, meso-endo-N-{8-[6-(Thiazolo[4,5-c]pyridin-2-yloxy)-benzofuran-2-ylmethyl]-8-aza-bicyclo[3.2.1]oct-3-yl}-acetamide], the IC50 came out at 236 nM.

Consider `CC(=O)N1C[C@@H]2C[C@H]1CN2Cc1coc2cc(Oc3nc4cccnc4s3)ccc12` [Example 221, (1S,4S)-1-{5-[6-(Thiazolo[5,4-b]pyridin-2-yloxy)-benzofuran-3-ylmethyl]-2,5-diaza-bicyclo[2.2.1]hept-2-yl}-ethanone], for which the IC50 turned out to be 227 nM.

`c1cnc2nc(Oc3ccc4c(CNCCN5CCCCC5)coc4c3)sc2c1` [Example 305, (2-Piperidin-1-yl-ethyl)-[6-(thiazolo[4,5-b]pyridin-2-yloxy)-benzofuran-3-ylmethyl]-amine]: the IC50 was 31 nM.

Take `CC(=O)NC1CCN(Cc2coc3cc(Oc4nc5ncc(Cl)cc5s4)ccc23)CC1` [Example 254, N-{1-[6-(6-Chloro-thiazolo[4,5-b]pyridin-2-yloxy)-benzofuran-3-ylmethyl]-piperidin-4-yl}-acetamide formate]: the IC50 is 108 nM.
